Assay results as given in PubChem BioAssay (NCI).
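Cells were grown in 96-well plates and exposed to each compound for 48 hours at five concentrations; endpoints were interpolated linearly between bracketing concentrations, or set to the highest concentration if not reached. GI50 marks 50% less growth. At the TGI there is no net growth.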

Legend:
Test in all cases: inhibition of tumour cell growth, NCI panel, 48 h
[1] = test system: NCI/ADR-RES ovarian
[2] = test system: SK-OV-3 ovarian
[3] = test system: HOP-92 NSCLC
[4] = test system: A549 NSCLC
[5] = test system: NCI-H226 lung
[6] = test system: MALME-3M melanoma
[7] = test system: HOP-62 NSCLC
[8] = test system: PC-3 prostate
[9] = test system: NCI-H522 lung
[10] = test system: HL-60(TB) leukemia
[11] = test system: 786-0 renal
[12] = test system: OVCAR-5 ovarian
[13] = test system: UACC-62 melanoma
[14] = test system: SN12C renal
[15] = test system: SK-MEL-2 melanoma
[16] = test system: TK-10 renal
[17] = test system: BT-549 breast
[18] = test system: NCI-H23 lung
[19] = test system: NCI-H460 lung
[20] = test system: UO-31 renal
[21] = test system: A498 renal
[22] = test system: MDA-MB-231 breast
[23] = test system: CAKI-1 renal
[24] = test system: M14 melanoma
[25] = test system: RPMI-8226 leukemia
[26] = test system: SR leukemia
[27] = test system: HCT-15 colon
[28] = test system: U251 CNS
[29] = test system: OVCAR-8 ovarian
[30] = test system: SF-539 CNS
[31] = test system: COLO 205 colon
[32] = test system: HT29 colon
[33] = test system: KM12 colon
[34] = test system: RXF 393 renal
[35] = test system: SNB-19 CNS
[36] = test system: OVCAR-4 ovarian
[37] = test system: LOX IMVI melanoma
[38] = test system: MDA-MB-435
[39] = test system: K-562 leukemia
[40] = test system: IGROV1 ovarian
[41] = test system: T-47D breast
[42] = test system: UACC-257 melanoma
[43] = test system: SK-MEL-5 melanoma
[44] = test system: ACHN renal
[45] = test system: SF-295 CNS
[46] = test system: HCT-116 colon
[47] = test system: CCRF-CEM leukemia
[48] = test system: MCF7 breast
[49] = test system: SK-MEL-28 melanoma
[50] = test system: EKVX NSCLC
[51] = test system: OVCAR-3 ovarian
[52] = test system: SF-268 CNS
[53] = test system: SW-620 colon
[54] = test system: HCC-2998 colon
[55] = test system: DU-145 prostate
[56] = test system: HS 578T breast
[57] = test system: MOLT-4 leukemia
[58] = test system: SNB-75 CNS

Q: How did the GI50 [1] turn out when `NCCCCCn1c2c(c3ccccc3c1=O)C(=O)c1ccccc1-2` was run?
A: 1410 nM

Q: What about the TGI [1] of the same compound?
A: 4.86 µM

Q: And the GI50 [2]?
A: 531 nM

Q: What about the TGI [2] of the same compound?
A: 2160 nM

Q: And the GI50 [3]?
A: 435 nM

Q: And the TGI [3]?
A: 3.72 µM

Q: And the GI50 [4]?
A: 452 nM

Q: And the GI50 [5]?
A: 479 nM

Q: What about the TGI [5] of the same compound?
A: 2160 nM

Q: What about the GI50 [6] of the same compound?
A: 1130 nM

Q: And the TGI [6]?
A: 3.17 µM

Q: What about the GI50 [7] of the same compound?
A: 221 nM

Q: What about the TGI [7] of the same compound?
A: 2190 nM

Q: And the GI50 [8]?
A: 1230 nM

Q: And the TGI [8]?
A: 5.37 µM

Q: What about the GI50 [9] of the same compound?
A: 215 nM

Q: And the TGI [9]?
A: 1690 nM

Q: And the GI50 [10]?
A: 159 nM

Q: And the TGI [10]?
A: 744 nM

Q: What about the GI50 [11] of the same compound?
A: 274 nM

Q: And the TGI [11]?
A: 2010 nM

Q: What about the GI50 [12] of the same compound?
A: 999 nM

Q: And the TGI [12]?
A: 3.84 µM

Q: What about the GI50 [13] of the same compound?
A: 1420 nM

Q: And the TGI [13]?
A: 3.37 µM

Q: And the GI50 [14]?
A: 305 nM

Q: What about the TGI [14] of the same compound?
A: 3.97 µM

Q: And the GI50 [15]?
A: 1410 nM

Q: What about the TGI [15] of the same compound?
A: 2960 nM

Q: What about the GI50 [16] of the same compound?
A: 714 nM

Q: And the TGI [16]?
A: 7.08 µM

Q: What about the GI50 [17] of the same compound?
A: 1570 nM

Q: And the TGI [17]?
A: 4.6 µM

Q: What about the GI50 [18] of the same compound?
A: 314 nM

Q: What about the TGI [18] of the same compound?
A: 1470 nM

Q: And the GI50 [19]?
A: 53.7 nM

Q: What about the TGI [19] of the same compound?
A: 1020 nM

Q: And the GI50 [20]?
A: 238 nM

Q: What about the TGI [20] of the same compound?
A: 1530 nM

Q: What about the GI50 [21] of the same compound?
A: 1430 nM

Q: What about the TGI [21] of the same compound?
A: 4.07 µM

Q: And the GI50 [22]?
A: 1760 nM

Q: What about the TGI [22] of the same compound?
A: 6.09 µM

Q: And the GI50 [23]?
A: 749 nM

Q: What about the TGI [23] of the same compound?
A: 14 µM

Q: What about the GI50 [24] of the same compound?
A: 1410 nM

Q: What about the TGI [24] of the same compound?
A: 3.22 µM

Q: What about the GI50 [25] of the same compound?
A: 222 nM

Q: And the TGI [25]?
A: 1510 nM

Q: And the GI50 [26]?
A: 35 nM

Q: What about the TGI [26] of the same compound?
A: 726 nM

Q: What about the GI50 [27] of the same compound?
A: 163 nM

Q: And the TGI [27]?
A: 2340 nM

Q: And the GI50 [28]?
A: 232 nM

Q: What about the TGI [28] of the same compound?
A: 4.11 µM

Q: What about the GI50 [29] of the same compound?
A: 497 nM

Q: What about the TGI [29] of the same compound?
A: 10.5 µM

Q: And the GI50 [30]?
A: 864 nM

Q: And the TGI [30]?
A: 2480 nM

Q: What about the GI50 [31] of the same compound?
A: 639 nM

Q: And the TGI [31]?
A: 3.27 µM

Q: And the GI50 [32]?
A: 246 nM

Q: And the TGI [32]?
A: 4.66 µM

Q: And the GI50 [33]?
A: 284 nM

Q: And the TGI [33]?
A: 2480 nM

Q: And the GI50 [34]?
A: 2830 nM

Q: And the TGI [34]?
A: > 26.3 µM

Q: What about the GI50 [35] of the same compound?
A: 465 nM

Q: And the TGI [35]?
A: 7.66 µM

Q: What about the GI50 [36] of the same compound?
A: 1540 nM

Q: What about the TGI [36] of the same compound?
A: 5.58 µM

Q: And the GI50 [37]?
A: 221 nM

Q: What about the TGI [37] of the same compound?
A: 1760 nM

Q: And the GI50 [38]?
A: 1360 nM

Q: And the TGI [38]?
A: 3.62 µM

Q: And the GI50 [39]?
A: 195 nM

Q: And the TGI [39]?
A: 2470 nM

Q: And the GI50 [40]?
A: 241 nM

Q: And the TGI [40]?
A: 2750 nM

Q: What about the GI50 [41] of the same compound?
A: 451 nM

Q: And the TGI [41]?
A: 2140 nM

Q: What about the GI50 [42] of the same compound?
A: 2000 nM

Q: What about the TGI [42] of the same compound?
A: 4.7 µM

Q: And the GI50 [43]?
A: 617 nM

Q: And the TGI [43]?
A: 2050 nM

Q: And the GI50 [44]?
A: 190 nM

Q: And the TGI [44]?
A: 909 nM

Q: What about the GI50 [45] of the same compound?
A: 527 nM

Q: What about the TGI [45] of the same compound?
A: 6.38 µM

Q: And the GI50 [46]?
A: 151 nM

Q: What about the TGI [46] of the same compound?
A: 3.91 µM

Q: What about the GI50 [47] of the same compound?
A: 106 nM

Q: What about the TGI [47] of the same compound?
A: 1160 nM

Q: And the GI50 [48]?
A: 69.6 nM

Q: What about the TGI [48] of the same compound?
A: 3.49 µM

Q: And the GI50 [49]?
A: 1460 nM

Q: What about the TGI [49] of the same compound?
A: 3.16 µM

Q: And the GI50 [50]?
A: 4.08 µM

Q: And the TGI [50]?
A: 17.1 µM

Q: What about the GI50 [51] of the same compound?
A: 1100 nM

Q: And the TGI [51]?
A: 6.74 µM

Q: What about the GI50 [52] of the same compound?
A: 321 nM

Q: And the TGI [52]?
A: 3.06 µM

Q: And the GI50 [53]?
A: 166 nM

Q: What about the TGI [53] of the same compound?
A: 4.09 µM

Q: What about the GI50 [54] of the same compound?
A: 529 nM

Q: What about the TGI [54] of the same compound?
A: 2630 nM

Q: And the GI50 [55]?
A: 266 nM

Q: What about the GI50 [56] of the same compound?
A: 1770 nM

Q: What about the TGI [56] of the same compound?
A: 12.9 µM

Q: And the GI50 [57]?
A: 28.5 nM

Q: And the TGI [57]?
A: 1740 nM

Q: What about the GI50 [58] of the same compound?
A: 1200 nM

Q: What about the TGI [58] of the same compound?
A: 6.92 µM
